Patent US8877744B2, “1,4-Oxazepines as BACE1 and/or BACE2 inhibitors” (Hoffmann-La Roche Inc., priority 2011, dated 2014)
Values belong to the compound of their own block, whether it stands above or below them.

Tests used:
BACE1 = target: T1, BACE1 (Homo sapiens, UniProt P56817); test: Cellular Aβ-lowering assay a): HEK293 cells expressing human APP695, Aβ40 ELISA; assay type: cell-based; details: Aβ40 in supernatant by ELISA, 18-20 hrs incubation
T1 construct: endogenous in cells; host or cells: HEK293 stably transfected with human APP695 wt
T1 sequence (P56817 46-501): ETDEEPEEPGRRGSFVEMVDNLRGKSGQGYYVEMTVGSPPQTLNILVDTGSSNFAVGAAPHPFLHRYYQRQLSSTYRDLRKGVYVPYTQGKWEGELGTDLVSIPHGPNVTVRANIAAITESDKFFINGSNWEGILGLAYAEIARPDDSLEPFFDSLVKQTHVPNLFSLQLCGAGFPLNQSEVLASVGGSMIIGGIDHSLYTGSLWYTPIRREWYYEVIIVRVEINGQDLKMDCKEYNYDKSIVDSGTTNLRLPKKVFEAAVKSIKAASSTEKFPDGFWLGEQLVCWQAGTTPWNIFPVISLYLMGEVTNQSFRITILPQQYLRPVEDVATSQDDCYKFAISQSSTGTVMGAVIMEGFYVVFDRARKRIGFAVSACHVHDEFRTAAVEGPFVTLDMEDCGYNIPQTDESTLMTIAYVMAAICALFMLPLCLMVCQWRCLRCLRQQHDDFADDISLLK
Description: Cellular Aβ-Lowering Assay:
a) Human HEK293 cells which are stably transfected with a vector expressing a cDNA of the human APP wt gene (APP695) were used to assess the potency of the compounds in a cellular assay. The cells were seeded in 96-well microtiter plates in cell culture medium (Iscove, plus 10% (v/v) fetal bovine serum, glutamine, penicillin/streptomycin) to about 80% confluence and the compounds were added at a 10× concentration in 1/10 volume of medium without FCS containing 8% DMSO (final concentration of DMSO was kept at 0.8% v/v). After 18-20 hrs incubation at 37° C. and 5% CO2 in a humidified incubator the culture supernatant was harvested for the determination of Aβ40 concentrations. 96 well ELISA plates (e.g., Nunc MaxiSorb) were coated with monoclonal antibody which specifically recognize the C-terminal end of Aβ40 (Brockhaus et al., NeuroReport 9, 1481-1486; 1998). After blocking of non-specific binding sites with e.g. 1% BSA and washing, the culture supernatants were added in suitable dilutions together with a horseradish peroxidase-coupled Aβ detection antibody (e.g., antibody 4G8, Senetek, Maryland Heights, Mo.) and incubated for 5 to 7 hrs. Subsequently the wells of the microtiter plate were washed extensively with Tris-buffered saline containing 0.05% Tween 20 and the assay was developed with tetramethylbenzidine/H2O2 in citric acid buffer. After stopping the reaction with one volume 1 N H2SO4 the reaction was measured in an ELISA reader at 450 nm wavelength. The concentrations of Aβ in the culture supernatants were calculated from a standard curve obtained with known amounts of pure Aβ peptide.

[1] = target: T2, endogenous cellular BACE2 (Rattus norvegicus, UniProt Q6IE75); test: Assay for BACE inhibition by measuring cellular TMEM27 cleavage (INS-TMEM27 cells, ELISA); assay type: cell-based; details: INS-TMEM27 (Ins1e rat) cells, shed human TMEM27 by ELISA
T2 construct: endogenous in cells; host or cells: INS-TMEM27 (INS1e-derived rat cell line with inducible full-length hTMEM27)
T2 sequence (Q6IE75 63-514): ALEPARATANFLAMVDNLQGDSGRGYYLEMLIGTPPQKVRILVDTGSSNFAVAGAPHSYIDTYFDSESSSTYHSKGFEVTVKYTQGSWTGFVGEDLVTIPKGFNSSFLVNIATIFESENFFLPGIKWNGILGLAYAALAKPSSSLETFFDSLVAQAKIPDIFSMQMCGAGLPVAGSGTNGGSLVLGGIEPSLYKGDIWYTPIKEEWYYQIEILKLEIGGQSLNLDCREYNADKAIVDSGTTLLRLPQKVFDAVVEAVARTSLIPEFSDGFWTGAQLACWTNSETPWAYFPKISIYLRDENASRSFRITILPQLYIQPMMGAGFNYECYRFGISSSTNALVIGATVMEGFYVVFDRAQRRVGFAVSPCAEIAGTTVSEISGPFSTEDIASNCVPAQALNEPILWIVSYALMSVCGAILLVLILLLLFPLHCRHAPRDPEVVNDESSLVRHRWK
From the text: Assay for BACE Inhibition by Measuring Cellular TMEM27 Cleavage:
The assay uses the principle of inhibition of human TMEM27 cleavage by endogenous cellular BACE2 in the Ins1e rat cell line and shedding from the cell surface into the culture medium, followed by detection in an ELISA assay Inhibition of BACE2 prevents the cleavage and shedding in a dose-dependent manner
The stable cell line “INS-TMEM27” represents an INS1e-derived cell line with inducible expression (using the TetOn system) of full-length hTMEM27 in a doxycycline-dependent manner. The cells are cultured throughout the experiment in RPMI1640+Glutamax (Invitrogen) Penicillin/Streptomycin, 10% Fetal bovine serum, […], […], 100 micrograms/ml G418 and 100 microgram/ml hygromycin and are grown inadherent culture at 37° C. in a standard CO2 cell culture incubator.
INS-TMEM27 cells are seeded in 96-well plates. After 2 days in culture, BACE2 inhibitor is added in a range of concentrations as required by the assay and after a further two hours, doxycycline is added to a final concentration of 500 ng/ml. The cells are incubated for a further 46 hours and the supernatant harvested for detection of shed TMEM27.
An ELISA assay (using a pair of mouse anti-human-TMEM27 antibodies, raised against the extracellular domain of TMEM27) is used for detection of TMEM27 in the culture medium. An EC50 for BACE2 inhibition is calculated using the ELISA readout for each inhibitor concentration with standard curve-fitting software such as XLFit for the Excel spreadsheet program.

Compound: CC1(C)OCC(N)=N[C@](C)(c2cc(-c3cccc(C#N)c3)ccc2F)C1(F)F [Example 14, 3′-((R)-3-Amino-6,6-difluoro-5,7,7-trimethyl-2,5,6,7-tetrahydro-[1,4]oxazepin-5-yl)-4′-fluoro-biphenyl-3-carbonitrile]
- IC50 (BACE1): 186 nM
- IC50 [1]: 279 nM

Compound: CC1(C)OCC(N)=N[C@](C)(c2cc(-c3cc(F)cc(F)c3)ccc2F)C1(F)F [Example 3, (R)-6,6-Difluoro-5,7,7-trimethyl-5-(4,3′,5′-trifluoro-biphenyl-3-yl)-2,5,6,7-tetrahydro-[1,4]oxazepin-3-ylamine]
- IC50 (BACE1): 180 nM

Compound: CC1(C)OCC(N)=N[C@](C)(c2cc(-c3cncc(Cl)c3)ccc2F)C1(F)F [Example 4, (R)-5-[5-(5-Chloro-pyridin-3-yl)-2-fluoro-phenyl]-6,6-difluoro-5,7,7-trimethyl-2,5,6,7-tetrahydro-[1,4]oxazepin-3-ylamine]
- IC50 (BACE1): 205 nM
- IC50 [1]: 592 nM

The remaining compounds from weak to strong by IC50 (BACE1), led by results:

- IC50 (BACE1): 1590 nM
- IC50 [1]: 1330 nM
Compound: CC1(C)OCC(N)=N[C@](C)(c2cc(-c3cc(Cl)cc(Cl)c3)ccc2F)C1(F)F [Example 10, (R)-5-(3′,5′-Dichloro-4-fluoro-biphenyl-3-yl)-6,6-difluoro-5,7,7-trimethyl-2,5,6,7-tetrahydro-[1,4]oxazepin-3-ylamine]

- IC50 (BACE1): 81 nM
Compound: CC1(C)OCC(N)=N[C@](C)(c2cc(-c3cncc(Cl)c3)c(F)cc2F)C1(F)F [Example 26, (R)-5-[5-(5-Chloro-pyridin-3-yl)-2,4-difluoro-phenyl]-6,6-difluoro-5,7,7-trimethyl-2,5,6,7-tetrahydro-[1,4]oxazepin-3-ylamine]
